Here are results for one substance from US20250375491A1, “MONASCUS PILOSUS STRAIN, COMPOSITION FOR LOSING WEIGHT AND IMPROVING GUT MICROBIOTA COMPOSITION AND USE OF SAID MONASCUS PILOSUS” (SUNWAY BIOTECH CO., LTD., priority 2024, published 2025).

Marks after values point to notes of the source that are not given here.

Common to all, as to type: in vivo, Sprague-Dawley (SD) rats
In assay [1] the test system is obesity rats induced by high-fat feed. Put plainly: Serum biochemical analysis (TC, TG). The settings on record: high-fat diet rats, Monascinol 0.31 mg/kg BW daily by tube feeding (human 3 mg/day), 8 weeks. Here is the method:
(§1) Forty male rats of 8-week-old Sprague-Dawley (SD) strain were purchased from BioLASCO (Taipei, Taiwan) for the experiment. The growing environment was one with constant indoor temperature (25±1° C.), relative humidity of 60%, and 12 hours of cyclic light (light time from 8:00 to 20:00). The rats were acclimatized for four days before the formal experiment, then reared in 5 groups of 8 rats each for 8 weeks and were fed in an ad libitum feeding manner, and their body weight, food intake and water intake were measured at regular intervals during the experimental period.
(§2) The experimental rats were divided into groups, and the obesity rats were induced by high-fat feed as follows (Please refer to Table 1). • i. NOR Group: Normal animal group. • ii. HF Group: High-fat control group including obesity rats induced by high-fat feed. • iii. RL Group: Obesity rats induced by high-fat feed and tube-fed daily with red yeast rice powder, equivalent to 0.5 g of red yeast rice containing 1.5 mg of Monascinol per day consumed by an adult rat of 60 kg. • iv. […]
The test was performed using a biochemical autoanalyzer (Model No.: Beckman-700, purchased from Fullerton, California, USA). The items measured were Total Cholesterol (TC), and Triglyceride (TG).

In assay [2] the test system is gut microbiota of high-fat diet rats. Description: Gut microbiota fecal analysis (full-length 16S sequencing). Here is the method:
About 0.3 g of fresh feces was collected into 1.5 mL of eppendorf before fasting for sacrifice, sealed with parafilm, stored at −80° C. for analysis, and sent to BioTools (New Taipei, Taiwan) for analysis.
Total genomic DNA (QIAamp PowerFecal DNA, Qiagen) was extracted from the samples. The DNA concentration was determined by Qubit 4.0 fluorometer (Thermo Scientific) and adjusted to 1 ng/μL. The full-length 16S gene (V1-V9 region) was amplified by 16S gene-specific primers with barcodes (Forward primer 1): 5′ Phos/GCATC-16-base barcode-Sequence ID Number 11, Reverse primer 1: 5′Phos/GCATC-16-base barcode-Sequence ID Number 12). PCR reactions were performed using KAPA HiFi HotStart ReadyMix (Roche): at 95° C. for 3 min. and 20-27 cycles (Sample Dependency): at 95° C. for 30 sec., at 57° C. for 30 sec., at 72° C. for 60 sec; at 72° C. for 5 min., and finally stored at 4° C. for future use. PCR products were monitored on 1% agarose gels. Samples of approximately 1500 bp bright bands were selected and purified by using AMPure PB Beads for SMRTbell library preparation.
SMRTbell libraries were prepared based on full-length 16S gene amplifications with barcoded primers used in the Multiplex SMRTbell Library Preparation and Sequencing Program (Pacbio). Sequencing was performed in circular consensus sequencing (CCS) mode on a PacBio Sequel Ile instrument, generating HiFi read with a Phred Scale=30. The DNA to be tested will be sequenced iteratively. By comparing the results of the reverse sequencing, sequencing errors will be corrected, ultimately achieving a high accuracy of >99.9% (QV30).
Information Analysis (Sequential data processing/denoising and species annotation) The sample data from the downstream data were sorted out according to the Barcode sequence and PCR amplification primer sequences. After the removal of the barcodes and primer sequences, the data were imported into QIIME2 (v2019.7.0; https://qiime2.org/) and all the sequences of the samples were saved into one corresponding object Artifacts. QIIME2 cutadapt was used to remove the amplicon variant primers (forward primer 2: Sequence ID Number 13; reverse primer 2: Sequence ID Number 14), and the sequence with the primers removed will be used as QIIME2 DADA2. Input Reads.
The denoising analysis began with the filtering of sequences, setting each sequence to be cropped to a specified length (forward reads: 280 bp; reverse reads: 220 bp) and setting the MaxEE (forward reads: 2; reverse reads: 2) parameter as the maximum number of expected error bases allowed for the sequence. This was followed by denoising, the core algorithm of DADA2 utilizing the information of sequence abundance, quality score, and relationships between sequences to correct the […] of sequencing errors and to infer the real sequences. Splicing was performed after denoising each end of the sequence (minimum overlap length 20 bp; overlap region was not allowed to be mismatched). Finally, the spliced sequences are subjected to chimera removal by comparing the sequences with higher abundance in the sample. If a sequence with low abundance is similar to several sequences, it can be recognized as a chimera and removed from the sample. Sequences after denoising analysis were used as representative sequences of Amplicon Sequence Variants (ASVs) and can be obtained from the ASV table for subsequent species annotation. The QIIME2 feature-classifier (v2019.7.0; https://qiime2.org/) was used to select machine learning-based classification methods and to train naïve bayes classifiers for different databases and specific variability regions. The taxonomic annotation of ASVs represented by this classifier yields taxonomic information and the composition of the microbial phyla of each sample at each classification level including kingdom, phylum, class, order, family, genus, and species.
Welch's t-test was analyzed by STAMP (v2.1.3), and the intergroup species differences were plotted as bar charts. […]

The test system of assay [3] is obesity rats induced by high-fat feed. Description: Body fat mass and body fat rate (perirenal and epididymal fatty tissues). The conditions noted are these: high-fat diet rats, Monascinol 0.31 mg/kg BW daily by tube feeding (human 3 mg/day), 8 weeks. Here is the method: as §1, §2
At the time of sacrifice, fatty tissues surrounding the kidneys and the epididymis (perirenal and epididymal fatty tissues) of the experimental animals were removed, and the their weights were measured and recorded. The body fat rate was calculated as follows: […]

Assay [4] shares this test system. Put plainly: Body weight change of obesity rats induced by high-fat feed. The conditions noted are these: high-fat diet rats, Monascinol 0.31 mg/kg BW daily by tube feeding (human 3 mg/day), 8 weeks. Here is the method:
• (1) Msol Group: This group used Monascinol with an adult daily dosage of 3 mg/day. • (2) RL and RH Groups: These groups used the red yeast rice obtained by fermenting the Monascus pilosus fermented rice of the present invention and the red yeast rice contained 3 mg/g of Monascinol, wherein the adult daily dosage of the red yeast rice for the RL and RH groups were 0.5 g/day and 2 g/day respectively. 2. Experiment on Evaluation of Adjustment of Body Fat Composition
as §1
The feeding dosage was calculated according to the method of “Estimating the maximum safe starting dose in initial clinical trials for therapeutics in adult healthy volunteers” published by the U.S. Food and Drug Administration in 2005. Provided that an adult of 60 kg was used as the base, the principle of dosage conversion is 6.2 times of the recommended daily intake of mg/kg bw/day for human as the recommended daily intake of mg/kg bw/day for rat, and the rat group is configured and fed with the dosage as shown in Table 1. The formulae are as follows: Dose intake per kilogram of body weight in rats=Recommended intake in humans÷Body weight 60 kg×6.2, and thus the daily dose intake per kilogram of body weight in rats can be calculated.
The experimental rats were divided into groups, and the obesity rats were induced by high-fat feed as follows (Please refer to Table 1). • i. NOR Group: Normal animal group. • ii. […]
The body weight of rats was measured weekly and the changes in body weight of each group were compared at the end of the experiment.

For assay [5] the test system is unchanged. Description: Fecal lipid extraction and determination (TC, TG). The settings on record: high-fat diet rats; Monascinol 0.31 mg/kg BW daily by tube feeding (human 3 mg/day), 8 weeks. Here is the method:
as §1
(§3) The experimental rats were divided into groups, and the obesity rats were induced by high-fat feed as follows (Please refer to Table 1). • i. NOR Group: Normal animal group. • ii. HF Group: High-fat control group including obesity rats induced by high-fat feed. • iii. […]
(§4) 0.1 g of liver tissue or fecal powder was weighed and 1 mL of chloroform:methanol (2:1, v/v volume ratio) was added, and homogenized with a tissue homogenizer and centrifuged to obtain the supernatant. […] The TC concentration was analyzed using a commercially available biochemical reagent (Model No. BXC 0261, Fortress), and the TG concentration was analyzed using a commercially available biochemical reagent (Model No. BXC 0271, Fortress), as per the kit instruction manual.

For assay [6] the test system is unchanged. Description: Liver weight and liver/body weight of high-fat diet rats. The conditions noted are these: Monascinol 0.31 mg/kg BW daily by tube feeding (human 3 mg/day), 8 weeks. The method, then: as §1
as §2, with “iv. RH Group: Obesity rats induced by high-fat feed and tube-fed red yeast rice powder daily, equivalent to 2 g of red yeast rice containing 6 mg of Monascinol per day consumed by an adult of 60 kg. • v.” for “iv.”

Assay [7] shares this test system. Put plainly: Liver lipid extraction and determination (TC, TG). The settings on record: high-fat diet rats; Monascinol 0.31 mg/kg BW daily by tube feeding (human 3 mg/day), 8 weeks. Here is the method:
as §1, §3, §4

[8] abbreviates: FIGS. 9A-9D, high-fat diet rats.
Setting [9] is: order level, FIG. 7C, high-fat diet rats.
Setting [10] is: phylum level, FIG. 7A, high-fat diet rats vs HF group.

As to Monascinol [Msol], in assay [1], the TC is given as 65.0 ± 10.4^b mg/dL and the TG is 61.7 ± 10.7^a mg/dL. Moreover, the “F/B ratio (abundance ratio of Firmicutes to Bacteroidetes)” value in assay [2] (FIG. 7A, high-fat diet rats vs HF group) is recorded as “decrease”. In assay [2] (setting [8]), the “effect on B. thetaiotaomicron in the intestines” value is “most significant” and the “intestinal abundance of Dubosiella newyorkensis” value is “increase”. For the same substance, in assay [2] (setting [9]), the “bacterial abundance of Bifidobacteriales in the intestine” value was “increased” and the “intestinal abundance of Verrucomicrobiales” value was “increased”. Besides, the “abundance of Eubacteriales” value in assay [2] (order level, FIG. 8, HF group 50.14%, high-fat diet rats, Monascinol (MSol, 3 mg/day), 8 weeks) came out at 43.21%. Besides, in assay [2] (setting [10]), the “abundance of Bacteroidetes” value is recorded as “increase” and the “abundance of Firmicutes” value is reported as “decrease”. In addition, the “abundance of A. muciniphila” value in assay [2] (species level, FIG. 7F, high-fat diet-induced obesity rats) is “increased”. Besides, in assay [3] (body fat percentage), the Fat/body weight is recorded as 3.35 ± 0.55^b %. For the same substance, the Fat weight in assay [3] (perirenal and epididymal fat) is 17.95 3.55^b g. For the same substance, the “Weight before Sacrifice” value in assay [4] (after fasting) was 488.5 ± 31.7^a g. For the same substance, in assay [4], the “Weight 8 week” value is recorded as 512.1 ± 31.1^a g and the Weight gain is reported as 220.8 ± 38.8^a g. In assay [5], the “Feces TC” value is reported as 46.22 ± 4.72^c mg/g and the “Feces TG” value was 61.27 4.80^cd mg/g. Also, in assay [6], the “Liver Weight/Body Weight” value is given as 3.28 ± 0.37^b % and the Liver weight is listed as 16.84 2.31^b g. For the same substance, in assay [7], the “Liver TC” value is recorded as 5.05 ± 0.54^a mg/g and the “Liver TG” value is 14.40 ± 1.57^a mg/g.
